Key:
[1] = Stability in tissue homogenate; format: in vitro ADME
Description: The stability of the KPI solution was examined after storage at 4 °C for 24 h and incubation at 37 °C for 4 h, which was conducted using the QC samples at three concentrations (five samples for each concentration). Stability in plasma and tissue homogenate was assessed by testing samples stored at both 4 °C and room temperature for 24 h.

[2] = Distribution studies in mice organs; format: in vivo; settings: 30 min and 4 h
Description: The heart, liver, spleen, lungs and kidneys were removed from mice after administering a dose of 5 mg/kg through oral gavage and 2 mg/kg through tail vein injection at 30 min and 240 min, followed by homogenization with normal saline. The resulting homogenate was centrifuged at 4 °C, 13,000 rpm for 20 min, and the supernatant was then mixed with the internal standard by vortexing. The mixtures were centrifuged at 4 °C, 13,000 rpm for 15 min. The resulting supernatant was then subjected to vacuum drying for 3–4 h. Lastly, the dried powder was reconstituted with a mixture of 50% methanol and water, and then centrifuged for LC–MS testing.

[3] = system: HKMs; experiment: Kinetics of N-hydap glucuronidation in HKMs; format: in vitro ADME, human; settings: HKM
Description: Various microsomes including HLMs, HKMs, HIMs, RLMs, RKMs, MLMs and MKMs were involved in CYP and UGT reactions of N-hydap. A typical CYP incubation mixture included 0.5 mg/mL microsomes protein, 3.3 mM glucose-6-phosphate, 3.3 mM MgCl2, 0.4 U/mL glucose-6-phosphate dehydrogenase, and N-hydap (1, 2.5, or 10 μM) in the 50 mM potassium phosphate buffer (KPI, pH 7.4). The incubation mixture was preincubated at 37 °C for 5 min, and the reaction was started by adding NADP to form a NADPH-regenerating system. Simultaneously, the classic UGT reaction system consisted of 50 mM KPI, 5 mM MgCl2, 0.5 mg/mL microsomes, 0.125 mg/mL alamethicin, and 5.25 mg/mL saccharolactone. The reaction was initiated after supplying UDPGA. The CYP and UGT mixtures were incubated at 37 °C in a shaking water bath (80 rpm) for 1.5 h to enhance metabolite formation. To terminate the reaction, an ice-cold solution of Tes (50 ng/mL, dissolved in methanol and used as an internal standard) was added to half of the mixture volume. […]
The substrate concentrations used for HLMs were 0.05, 0.5, 2, 2.5, 5, 10, 25, 50, and 100 μM. […] The rates of N-hydap-G by enzymes were expressed as nmol/mg/min, representing the amount of metabolites formed per minute per milligram of protein. Kinetic parameters were determined by analyzing the Eadie–Hofstee plots. […]

SMILES: CC1CCC2C(C=CC(C)C2C(=O)c2c(O)c(C3(O)CCC(O)C4OC43)cn(O)c2=O)C1 (centres unmarked) [N-hydap, N-Hydroxyapiosporamide]
- stability, Accuracy (Bias, %) ([1]; 60 nM, 4℃ for 24h): 102.62%
- stability, Accuracy (Bias, %) ([1]; 60 nM, room temperature for 24h): 103.17%
- stability, Accuracy (Bias, %) ([1]; 150 nM, 4℃ for 24h): 103.40%
- stability, Accuracy (Bias, %) ([1]; 150 nM, room temperature for 24h): 99.13%
- stability, Accuracy (Bias, %) ([1]; 500 nM, 4℃ for 24h): 105.16%
- stability, Accuracy (Bias, %) ([1]; 500 nM, room temperature for 24h): 93.38%
- total distribution ratio, heart ([2]; oral 5 mg/kg): 13.35%
- total distribution ratio, kidneys ([2]; oral 5 mg/kg): 25.50%
- total distribution ratio, liver ([2]; oral 5 mg/kg): 11.45%
- total distribution ratio, lungs ([2]; oral 5 mg/kg): 26.26%
- total distribution ratio, spleen ([2]; oral 5 mg/kg): 23.44%
- total distribution ratio, heart ([2]; tail vein injection 2 mg/kg): 10.57%
- total distribution ratio, kidneys ([2]; tail vein injection 2 mg/kg): 14.08%
- total distribution ratio, liver ([2]; tail vein injection 2 mg/kg): 37.61%
- total distribution ratio, lungs ([2]; tail vein injection 2 mg/kg): 23.17%
- total distribution ratio, spleen ([2]; tail vein injection 2 mg/kg): 14.57%
- Km [3]: 240 µM
